Data from patent US20070060566A1, “Benzazepine derivatives as histamine h3 antagonists” (priority 2003, published 2007).

Molecular target: T1, human histamine H3 receptor (Homo sapiens, UniProt Q9Y5N1)
T1 construct: expressed in transfected cells; host or cells: CHO K1 cells carrying the pSwitch regulatory plasmid, transfected with pGeneH3, induced with mifepristone; clone 3H3
Assay: Histamine H3 functional antagonist assay ([35S]GTPγS SPA on membranes)
Type: biochemical
Details: membranes of CHO K1 cells expressing human histamine H3; histamine 0.3 μM; read-out: antagonism (pKb) (converted)
Source text: A membrane preparation containing histamine H3 receptors may be prepared in accordance with the following procedures:
(i) Generation of Histamine H3 Cell Line
DNA encoding the human histamine H3 gene (Huvar, A. et al. (1999) Mol. Pharmacol. 55(6), 1101-1107) was cloned into a holding vector, pCDNA3.1 TOPO (InVitrogen) and its cDNA was isolated from this vector by restriction digestion of plasmid DNA with the enzymes BamH1 and Not-1 and ligated into the inducible expression vector pGene (InVitrogen) digested with the same enzymes. The GeneSwitch™ system (a system where in transgene expression is switched off in the absence of an inducer and switched on in the presence of an inducer) was performed as described in U.S. Pat. Nos. 5,364,791; 5,874,534; and 5,935,934. Ligated DNA was transformed into competent DH5α E. coli host bacterial cells and plated onto Luria Broth (LB) agar containing Zeocin™ (an antibiotic which allows the selection of cells expressing the sh ble gene which is present on pGene and pSwitch) at 50 μg ml^−1. Colonies containing the re-ligated plasmid were identified by restriction analysis. DNA for transfection into mammalian cells was prepared from 250 ml cultures of the host bacterium containing the pGeneH3 plasmid and isolated using a DNA preparation kit (Qiagen Midi-Prep) as per manufacturers guidelines (Qiagen).
CHO K1 cells previously transfected with the pSwitch regulatory plasmid (InVitrogen) were seeded at 2×10e6 cells per T75 flask in Complete Medium, containing Hams F12 (GIBCOBRL, Life Technologies) medium supplemented with 10% v/v dialysed foetal bovine serum, L-glutamine, and hygromycin (100 μg ml^−1), 24 hours prior to use. Plasmid DNA was transfected into the cells using Lipofectamine plus according to the manufacturers guidelines (InVitrogen). 48 hours post transfection cells were placed into complete medium supplemented with 500 μg ml^−1 Zeocin™.
10-14 days post selection 10 nM Mifepristone (InVitrogen), was added to the culture medium to induce the expression of the receptor. 18 hours post induction cells were detached from the flask using ethylenediamine tetra-acetic acid (EDTA; 1:5000; InVitrogen), following several washes with phosphate buffered saline pH 7.4 and resuspended in Sorting Medium containing Minimum Essential Medium (MEM), without phenol red, and supplemented with Earles salts and 3% Foetal Clone II (Hyclone). Approximately 1×10e7 cells were examined for receptor expression by staining with a rabbit polyclonal antibody, 4a, raised against the N-terminal domain of the histamine H3 receptor, incubated on ice for 60 minutes, followed by two washes in sorting medium. Receptor bound antibody was detected by incubation of the cells for 60 minutes on ice with a goat anti rabbit antibody, conjugated with Alexa 488 fluorescence marker (Molecular Probes). Following two further washes with Sorting Medium, cells were filtered through a 50 μm Filcon™ (BD Biosciences) and then analysed on a FACS Vantage SE Flow Cytometer fitted with an Automatic Cell Deposition Unit. Control cells were non-induced cells treated in a similar manner. Positively stained cells were sorted as single cells into 96-well plates, containing Complete Medium containing 500 μg ml^−1 Zeocin™ and allowed to expand before reanalysis for receptor expression via antibody and ligand binding studies. One clone, 3H3, was selected for membrane preparation.
(ii) Membrane Preparation from Cultured Cells
All steps of the protocol are carried out at 4° C. and with pre-cooled reagents. The cell pellet is resuspended in 10 volumes of buffer A2 containing 50 mM N-2-hydroxyethylpiperazine-N′-2-ethanesulfonic acid (HEPES) (pH 7.40) supplemented with 10e-4M leupeptin (acetyl-leucyl-leucyl-arginal; Sigma L2884), 25 μg/ml bacitracin (Sigma B0125), 1 mM ethylenediamine tetra-acetic acid (EDTA), 1 mM phenylmethylsulfonyl fluoride (PMSF) and 2×10e-6M pepstain A (Sigma). […]

T1 sequence (Q9Y5N1 whole entry): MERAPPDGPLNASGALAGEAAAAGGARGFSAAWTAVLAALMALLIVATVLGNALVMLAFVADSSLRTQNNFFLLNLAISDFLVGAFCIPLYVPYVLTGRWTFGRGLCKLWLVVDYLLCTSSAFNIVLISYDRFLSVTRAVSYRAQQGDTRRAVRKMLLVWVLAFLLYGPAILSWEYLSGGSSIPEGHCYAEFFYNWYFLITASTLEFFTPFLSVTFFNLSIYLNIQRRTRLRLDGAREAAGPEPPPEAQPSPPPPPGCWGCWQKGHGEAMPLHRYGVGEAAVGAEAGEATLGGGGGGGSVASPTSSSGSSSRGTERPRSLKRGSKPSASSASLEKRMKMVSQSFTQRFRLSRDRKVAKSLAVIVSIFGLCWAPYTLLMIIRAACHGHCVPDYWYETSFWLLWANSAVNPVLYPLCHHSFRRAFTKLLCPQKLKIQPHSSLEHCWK

Kb, < 0.316 nM:
N#Cc1ccc(C(=O)Nc2ccc3c(c2)CCN(C2CCC2)CC3)cc1 [Example 2, 4-Cyano-N-(3-cyclobutyl-2,3,4,5-tetrahydro-1H-3-benzazepin-7-yl)benzamide]
O=C(Nc1ccc2c(c1)CCN(C1CCC1)CC2)c1ccc(-c2ccccn2)cc1 [Example 8, N-(3-Cyclobutyl-2,3,4,5-tetrahydro-1H-3-benzazepin-7-yl)-4-(2-pyridinyl)benzamide]
O=C(Nc1ccc2c(c1)CCN(C1CCC1)CC2)c1ccc(-c2cncnc2)cc1 [Example 29, N-(3-Cyclobutyl-2,3,4,5-tetrahydro-1H-3-benzazepin-7-yl)-4-(5-pyrimidinyl)benzamide]
O=C(Nc1ccc2c(c1)CCN(C1CCC1)CC2)c1ccc(-n2cnnn2)cc1 [Example 33, N-(3-Cyclobutyl-2,3,4,5-tetrahydro-1H-3-benzazepin-7-yl)-4-(1H-tetrazol-1-yl)benzamide]
N#Cc1ccc(-c2ccc(C(=O)Nc3ccc4c(c3)CCN(C3CCC3)CC4)cc2)cn1 [Example 34, 4-(6-Cyano-3-pyridinyl)-N-(3-cyclobutyl-2,3,4,5-tetrahydro-1H-3-benzazepin-7-yl)benzamide]
Cc1ccc(C(=O)Nc2ccc3c(c2)CCN(C2CCC2)CC3)cn1 [Example 37, N-(3-Cyclobutyl-2,3,4,5-tetrahydro-1H-3-benzazepin-7-yl)-6-methylnicotinamide]
O=C(Nc1ccc2c(c1)CCN(C1CCC1)CC2)c1ccc(N2CCOCC2)nc1 [Example 44, N-(3-Cyclobutyl-2,3,4,5-tetrahydro-1H-3-benzazepin-7-yl)-6-(4-morpholinyl)-3-pyridinecarboxamide]
O=C(Nc1ccc2c(c1)CCN(C1CCC1)CC2)c1ccc(N2CCNC2=O)cc1 [Example 88, N-(3-Cyclobutyl-2,3,4,5-tetrahydro-1H-3-benzazepin-7-yl)-4-(2-oxo-1-imidazolidinyl)benzamide]
N#Cc1ccc(-c2ccc(C(=O)Nc3ccc4c(c3)CCN(C3CCC3)CC4)cn2)cc1 [Example 98, 6-(4-Cyanophenyl)-N-(3-cyclobutyl-2,3,4,5-tetrahydro-1H-3-benzazepin-7-yl)-3-pyridinecarboxamide]
O=C(Nc1ccc2c(c1)CCN(C1CCC1)CC2)c1cnc(N2CCCCC2)cn1 [Example 113, N-(3-Cyclobutyl-2,3,4,5-tetrahydro-1H-3-benzazepin-7-yl)-5-(1-piperidinyl)-2-pyrazinecarboxamide]
O=C(Nc1ccc2c(c1)CCN(C1CCC1)CC2)N1CCCc2ccccc21 [Example 148, N-(3-Cyclobutyl-2,3,4,5-tetrahydro-1H-3-benzazepin-7-yl)-3,4-dihydro-1(2H)-quinolinecarboxamide]
